From US12077503B2, “Substituted cyclic amides and their use as herbicides” (FMC CORPORATION, priority 2015, dated 2024)

How the values were obtained:
Format in all cases: in vivo
[1] = test system: ivy-leaved morning glory (Ipomoea hederacea); assay: Test G Post-Emergence Protocol; conditions: Ipomoea, post-emergence, 312 h, read-out: Morningglory, Ivy-leaved damage rating; for pest or weed control at 15.625 g/ha: 15.625 g ai/ha, evaluated after 13 days (100=total damage to plant; 0=no damage to plant); for pest or weed control at 62.5 g/ha: 62.5 g ai/ha; for pest or weed control at 62.5 g/ha / pest or weed control at 250 g/ha: evaluated after 13 days, 100=total damage to plant, 0=no damage to plant; for pest or weed control at 250 g/ha: 250 g ai/ha
How it was run: (§1)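 Damage was rated 13 days after treatment from 0 (none) to 100 (plant killed). Compound was applied as a spray at 15.625, 62.5 or 250 g/ha in 50:50 acetone/water containing 0.5% Tween 20, onto 8-day-old potted plants kept in a glasshouse (24/16 °C, 14 h light, 65% humidity).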

[2] = test system: redroot pigweed (Amaranthus retroflexus); assay: Test G Post-Emergence Protocol; conditions: Amaranthus retroflexus, post-emergence, 312 h, read-out: Pigweed, Redroot damage rating; for pest or weed control at 15.625 g/ha: 15.625 g ai/ha, evaluated after 13 days (100=total damage to plant; 0=no damage to plant); for pest or weed control at 62.5 g/ha: 62.5 g ai/ha; for pest or weed control at 62.5 g/ha / pest or weed control at 250 g/ha: evaluated after 13 days, 100=total damage to plant, 0=no damage to plant; for pest or weed control at 250 g/ha: 250 g ai/ha
How it was run: as §1

[3] = test system: barnyardgrass (Echinochloa crus-galli); assay: Test G Post-Emergence Protocol; conditions: Echinochloa crus-galli, post-emergence, 312 h, read-out: Barnyardgrass damage rating; for pest or weed control at 15.625 g/ha: 15.625 g ai/ha, evaluated after 13 days (100=total damage to plant; 0=no damage to plant); for pest or weed control at 62.5 g/ha: 62.5 g ai/ha; for pest or weed control at 62.5 g/ha / pest or weed control at 250 g/ha: evaluated after 13 days, 100=total damage to plant, 0=no damage to plant; for pest or weed control at 250 g/ha: 250 g ai/ha
How it was run: as §1

corn (Zea mays) [4] = assay: Test G Post-Emergence Protocol; conditions: Zea mays, post-emergence, 312 h, read-out: Corn damage rating; for plant injury at 15.625 g/ha: 15.625 g ai/ha, evaluated after 13 days (100=total damage to plant; 0=no damage to plant); for plant injury at 62.5 g/ha: 62.5 g ai/ha; for plant injury at 62.5 g/ha / plant injury at 250 g/ha: evaluated after 13 days, 100=total damage to plant, 0=no damage to plant; for plant injury at 250 g/ha: 250 g ai/ha
How it was run: as §1

[5] = test system: velvetleaf (Abutilon theophrasti); assay: Test G Post-Emergence Protocol; conditions: Abutilon theophrasti, post-emergence, 312 h, read-out: Velvetleaf damage rating; for pest or weed control at 15.625 g/ha: 15.625 g ai/ha, evaluated after 13 days (100=total damage to plant; 0=no damage to plant); for pest or weed control at 62.5 g/ha: 62.5 g ai/ha; for pest or weed control at 62.5 g/ha / pest or weed control at 250 g/ha: evaluated after 13 days, 100=total damage to plant, 0=no damage to plant; for pest or weed control at 250 g/ha: 250 g ai/ha
How it was run: as §1

[6] = test system: giant foxtail (Setaria faberi); assay: Test G Post-Emergence Protocol; conditions: Setaria faberi, post-emergence, 312 h, read-out: Foxtail, Giant damage rating; for pest or weed control at 15.625 g/ha: 15.625 g ai/ha, evaluated after 13 days (100=total damage to plant; 0=no damage to plant); for pest or weed control at 62.5 g/ha: 62.5 g ai/ha
How it was run: as §1

[7] = test system: ivy-leaved morning glory (Ipomoea hederacea); assay: Test G Pre-Emergence Protocol; conditions: Ipomoea, pre-emergence, 312 h, evaluated after 13 days; for pest or weed control at 15.625 g/ha: 15.625 g ai/ha; for pest or weed control at 15.625 g/ha / pest or weed control at 250 g/ha: read-out: Morningglory, Ivy-leaved damage rating (100=total damage to plant; 0=no damage to plant); for pest or weed control at 62.5 g/ha: 62.5 g ai/ha, 100=total damage to plant, 0=no damage to plant, read-out: Morningglory, Ivy-leaved damage rating; for pest or weed control at 250 g/ha: 250 g ai/ha
How it was run: (§2)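 One day after sowing, pots are treated with a spray of test compound formulated in acetone/water 50:50 plus 0.5% Tween 20, giving 15.625, 62.5 or 250 g/ha. Evaluation on a 0–100 damage scale follows 13 days of glasshouse growth.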

[8] = test system: redroot pigweed (Amaranthus retroflexus); assay: Test G Pre-Emergence Protocol; conditions: Amaranthus retroflexus, pre-emergence, 312 h, evaluated after 13 days; for pest or weed control at 15.625 g/ha: 15.625 g ai/ha; for pest or weed control at 15.625 g/ha / pest or weed control at 250 g/ha: read-out: Pigweed, Redroot damage rating (100=total damage to plant; 0=no damage to plant); for pest or weed control at 62.5 g/ha: 62.5 g ai/ha, 100=total damage to plant, 0=no damage to plant, read-out: Pigweed, Redroot damage rating; for pest or weed control at 250 g/ha: 250 g ai/ha
How it was run: as §2

[9] = test system: barnyardgrass (Echinochloa crus-galli); assay: Test G Pre-Emergence Protocol; conditions: Echinochloa crus-galli, pre-emergence, 312 h, evaluated after 13 days; for pest or weed control at 15.625 g/ha: 15.625 g ai/ha; for pest or weed control at 15.625 g/ha / pest or weed control at 250 g/ha: read-out: Barnyardgrass damage rating (100=total damage to plant; 0=no damage to plant); for pest or weed control at 62.5 g/ha: 62.5 g ai/ha, 100=total damage to plant, 0=no damage to plant, read-out: Barnyardgrass damage rating; for pest or weed control at 250 g/ha: 250 g ai/ha
How it was run: as §2

corn (Zea mays) [10] = assay: Test G Pre-Emergence Protocol; conditions: Zea mays, pre-emergence, 312 h, evaluated after 13 days; for plant injury at 15.625 g/ha: 15.625 g ai/ha; for plant injury at 15.625 g/ha / plant injury at 250 g/ha: read-out: Corn damage rating (100=total damage to plant; 0=no damage to plant); for plant injury at 62.5 g/ha: 62.5 g ai/ha, 100=total damage to plant, 0=no damage to plant, read-out: Corn damage rating; for plant injury at 250 g/ha: 250 g ai/ha
How it was run: as §2

[11] = test system: velvetleaf (Abutilon theophrasti); assay: Test G Pre-Emergence Protocol; conditions: Abutilon theophrasti, pre-emergence, 312 h, evaluated after 13 days; for pest or weed control at 15.625 g/ha: 15.625 g ai/ha; for pest or weed control at 15.625 g/ha / pest or weed control at 250 g/ha: read-out: Velvetleaf damage rating (100=total damage to plant; 0=no damage to plant); for pest or weed control at 62.5 g/ha: 62.5 g ai/ha, 100=total damage to plant, 0=no damage to plant, read-out: Velvetleaf damage rating; for pest or weed control at 250 g/ha: 250 g ai/ha
How it was run: as §2

[12] = test system: giant foxtail (Setaria faberi); assay: Test G Pre-Emergence Protocol; conditions: Setaria faberi, pre-emergence, 312 h, evaluated after 13 days; for pest or weed control at 15.625 g/ha: 15.625 g ai/ha; for pest or weed control at 15.625 g/ha / pest or weed control at 250 g/ha: read-out: Foxtail, Giant damage rating (100=total damage to plant; 0=no damage to plant); for pest or weed control at 62.5 g/ha: 62.5 g ai/ha, 100=total damage to plant, 0=no damage to plant, read-out: Foxtail, Giant damage rating; for pest or weed control at 250 g/ha: 250 g ai/ha
How it was run: as §2

[13] = evaluated after 13 days, 100=total damage to plant, 0=no damage to plant

| SMILES | pest or weed control at 15.625 g/ha [1] | pest or weed control at 62.5 g/ha [1] | pest or weed control at 250 g/ha [1] | pest or weed control at 15.625 g/ha [2] | pest or weed control at 62.5 g/ha [2] | pest or weed control at 250 g/ha [2] | pest or weed control at 15.625 g/ha [3] | pest or weed control at 62.5 g/ha [3] | pest or weed control at 250 g/ha [3] | plant injury at 15.625 g/ha (corn (Zea mays) [4]) | plant injury at 62.5 g/ha (corn (Zea mays) [4]) | plant injury at 250 g/ha (corn (Zea mays) [4]) | pest or weed control at 15.625 g/ha [5] | pest or weed control at 62.5 g/ha [5] | pest or weed control at 250 g/ha [5] | pest or weed control at 15.625 g/ha [6] | pest or weed control at 62.5 g/ha [6, 13] | pest or weed control at 15.625 g/ha [7] | pest or weed control at 62.5 g/ha [7] | pest or weed control at 250 g/ha [7] | other results |
| --- | --- | --- | --- | --- | --- | --- | --- | --- | --- | --- | --- | --- | --- | --- | --- | --- | --- | --- | --- | --- | --- |
| COc1ncc([C@@H]2CN(C)C(=O)[C@H]2C(=O)Nc2cccc(F)c2F)cc1Cl (racemic) [Compound 1755] | 60% | 70% | 70% | 10% | 20% | 30% | 60% | 70% | 80% | 10% | 80% | 80% | 10% | 30% | 60% | 70% | 80% | 0% | 20% | 80% | pest or weed control at 15.625 g/ha [8]: 0%; pest or weed control at 62.5 g/ha [8]: 40%; pest or weed control at 250 g/ha [8]: 70%; pest or weed control at 15.625 g/ha [9]: 70%; pest or weed control at 62.5 g/ha [9]: 80%; pest or weed control at 250 g/ha [9]: 90%; plant injury at 15.625 g/ha (corn (Zea mays) [10]): 20%; plant injury at 62.5 g/ha (corn (Zea mays) [10]): 60%; plant injury at 250 g/ha (corn (Zea mays) [10]): 80%; pest or weed control at 15.625 g/ha [11]: 0%; pest or weed control at 62.5 g/ha [11]: 20%; pest or weed control at 250 g/ha [11]: 70%; pest or weed control at 15.625 g/ha [12]: 80%; pest or weed control at 62.5 g/ha [12]: 90%; pest or weed control at 250 g/ha [12]: 90% |
| CN1CCC(NC(=O)[C@H]2C(=O)N(C)C[C@@H]2c2ccc(C(F)(F)F)cc2)C1=O (mixture of isomers) [Compound 1673] | 0% | 0% | 0% | 0% | 0% | 0% | 0% | 0% | 0% | 0% | 0% | 0% | 0% | 0% | 0% | 0% | 0% | 0% | 0% | 0% | pest or weed control at 250 g/ha ([6]; 250 g ai/ha, evaluated after 13 days, 100=total damage to plant, 0=no damage to plant): 10%; pest or weed control at 15.625 g/ha [8]: 0%; pest or weed control at 62.5 g/ha [8]: 0%; pest or weed control at 250 g/ha [8]: 0%; pest or weed control at 15.625 g/ha [9]: 0%; pest or weed control at 62.5 g/ha [9]: 0%; pest or weed control at 250 g/ha [9]: 0%; plant injury at 15.625 g/ha (corn (Zea mays) [10]): 0%; plant injury at 62.5 g/ha (corn (Zea mays) [10]): 0%; plant injury at 250 g/ha (corn (Zea mays) [10]): 0%; pest or weed control at 15.625 g/ha [11]: 0%; pest or weed control at 62.5 g/ha [11]: 0%; pest or weed control at 250 g/ha [11]: 0%; pest or weed control at 15.625 g/ha [12]: 0%; pest or weed control at 62.5 g/ha [12]: 0%; pest or weed control at 250 g/ha [12]: 0% |
